Data set [1] addresses T1, M2 (muscarinic subtype 2 acetylcholine receptor) (Homo sapiens, UniProt P08172).
T1 construct: gene CHRM2; human recombinant receptor
T1 sequence (P08172 1-466): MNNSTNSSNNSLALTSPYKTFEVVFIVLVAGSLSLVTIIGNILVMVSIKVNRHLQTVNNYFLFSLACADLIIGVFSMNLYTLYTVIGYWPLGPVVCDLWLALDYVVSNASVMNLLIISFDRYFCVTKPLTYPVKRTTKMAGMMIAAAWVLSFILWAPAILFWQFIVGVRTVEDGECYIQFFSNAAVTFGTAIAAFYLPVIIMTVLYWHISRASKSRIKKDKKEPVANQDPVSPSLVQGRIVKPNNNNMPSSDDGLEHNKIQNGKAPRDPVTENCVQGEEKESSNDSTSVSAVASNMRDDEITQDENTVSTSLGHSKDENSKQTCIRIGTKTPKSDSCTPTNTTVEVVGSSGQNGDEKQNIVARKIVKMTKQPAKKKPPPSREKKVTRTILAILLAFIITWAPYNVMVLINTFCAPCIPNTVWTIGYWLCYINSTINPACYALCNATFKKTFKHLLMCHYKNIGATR
As to the kind of experiment: radioligand binding inhibition screen. Conditions: read-out: % inhibition or stimulation^a. The text has this:
radioligand binding inhibition screen on M2 (muscarinic subtype 2 acetylcholine receptor)

The target in data set [2] is T1, M2 (muscarinic subtype 2 acetylcholine receptor). As to the kind of experiment: functional M2 antagonist assay. In kind it is cell-based. Conditions: antagonist mode; range of […] separate tests ([…]).
Data set [3] concerns the target T2, M3 (muscarinic receptor M3) (Homo sapiens, UniProt P20309).
T2 construct: gene CHRM3; human recombinant receptor
Put plainly: radioligand binding inhibition. The note with it: […] test; read-out: EC50 or IC50. The text has this: radioligand binding inhibition on M3 (muscarinic receptor M3)

A further data set deals with T3, M1 (Homo sapiens, UniProt P11229).
T3 construct: gene CHRM1; human recombinant receptor
T3 sequence (P11229 1-460): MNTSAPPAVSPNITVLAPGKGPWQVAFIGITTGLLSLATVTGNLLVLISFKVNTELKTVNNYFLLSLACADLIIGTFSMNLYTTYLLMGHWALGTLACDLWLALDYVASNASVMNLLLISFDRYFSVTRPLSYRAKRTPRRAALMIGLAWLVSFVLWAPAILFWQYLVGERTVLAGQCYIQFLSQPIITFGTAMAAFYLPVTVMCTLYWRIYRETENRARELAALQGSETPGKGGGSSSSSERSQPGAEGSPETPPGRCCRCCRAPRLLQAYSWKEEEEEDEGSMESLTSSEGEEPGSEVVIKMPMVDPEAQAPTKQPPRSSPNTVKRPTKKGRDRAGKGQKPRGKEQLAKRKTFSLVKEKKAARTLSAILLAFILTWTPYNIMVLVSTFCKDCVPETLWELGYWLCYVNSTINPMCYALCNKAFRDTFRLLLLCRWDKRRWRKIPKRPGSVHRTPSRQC
As to the kind of experiment: radioligand binding inhibition. The note with it: […] test; read-out: EC50 or IC50. The source says: radioligand binding inhibition on M1

In data set [4] the target is T1, M2 (muscarinic subtype 2 acetylcholine receptor). As to the kind of experiment: functional M2 agonist assay. Conditions: agonist mode; […] separate tests; read-out: EC50 or IC50. The class given is cell-based. The text has this: functional M2 agonist assay on M2 (muscarinic subtype 2 acetylcholine receptor)
A further data set addresses T4, M5 (Homo sapiens, UniProt P08912).
T4 construct: gene CHRM5; human recombinant receptor
T4 sequence (P08912 1-532): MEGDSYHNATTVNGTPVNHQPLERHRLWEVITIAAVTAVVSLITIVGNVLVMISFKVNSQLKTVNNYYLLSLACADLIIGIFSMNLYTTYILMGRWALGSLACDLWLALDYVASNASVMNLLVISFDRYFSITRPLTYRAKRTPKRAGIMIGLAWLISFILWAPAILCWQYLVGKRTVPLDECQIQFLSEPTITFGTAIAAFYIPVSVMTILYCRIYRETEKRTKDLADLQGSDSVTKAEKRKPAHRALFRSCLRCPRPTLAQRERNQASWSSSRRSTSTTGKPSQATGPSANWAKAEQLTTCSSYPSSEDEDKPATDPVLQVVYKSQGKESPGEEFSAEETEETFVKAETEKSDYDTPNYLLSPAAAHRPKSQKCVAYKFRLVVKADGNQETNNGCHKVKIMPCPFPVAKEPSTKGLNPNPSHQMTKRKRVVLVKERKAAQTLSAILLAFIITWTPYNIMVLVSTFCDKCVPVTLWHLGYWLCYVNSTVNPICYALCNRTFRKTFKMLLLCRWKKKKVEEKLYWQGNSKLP
Put plainly: radioligand binding inhibition. Conditions: […] separate tests; read-out: EC50 or IC50. The text has this:
radioligand binding inhibition on M5

In data set [5] the target is T5, hERG (human ether-a-go-go-related gene) channel (Homo sapiens, UniProt Q12809).
T5 construct: gene KCNH2; hERG cDNA stably transfected in HEK293 cells; homotetramer
T5 sequence (Q12809 whole entry): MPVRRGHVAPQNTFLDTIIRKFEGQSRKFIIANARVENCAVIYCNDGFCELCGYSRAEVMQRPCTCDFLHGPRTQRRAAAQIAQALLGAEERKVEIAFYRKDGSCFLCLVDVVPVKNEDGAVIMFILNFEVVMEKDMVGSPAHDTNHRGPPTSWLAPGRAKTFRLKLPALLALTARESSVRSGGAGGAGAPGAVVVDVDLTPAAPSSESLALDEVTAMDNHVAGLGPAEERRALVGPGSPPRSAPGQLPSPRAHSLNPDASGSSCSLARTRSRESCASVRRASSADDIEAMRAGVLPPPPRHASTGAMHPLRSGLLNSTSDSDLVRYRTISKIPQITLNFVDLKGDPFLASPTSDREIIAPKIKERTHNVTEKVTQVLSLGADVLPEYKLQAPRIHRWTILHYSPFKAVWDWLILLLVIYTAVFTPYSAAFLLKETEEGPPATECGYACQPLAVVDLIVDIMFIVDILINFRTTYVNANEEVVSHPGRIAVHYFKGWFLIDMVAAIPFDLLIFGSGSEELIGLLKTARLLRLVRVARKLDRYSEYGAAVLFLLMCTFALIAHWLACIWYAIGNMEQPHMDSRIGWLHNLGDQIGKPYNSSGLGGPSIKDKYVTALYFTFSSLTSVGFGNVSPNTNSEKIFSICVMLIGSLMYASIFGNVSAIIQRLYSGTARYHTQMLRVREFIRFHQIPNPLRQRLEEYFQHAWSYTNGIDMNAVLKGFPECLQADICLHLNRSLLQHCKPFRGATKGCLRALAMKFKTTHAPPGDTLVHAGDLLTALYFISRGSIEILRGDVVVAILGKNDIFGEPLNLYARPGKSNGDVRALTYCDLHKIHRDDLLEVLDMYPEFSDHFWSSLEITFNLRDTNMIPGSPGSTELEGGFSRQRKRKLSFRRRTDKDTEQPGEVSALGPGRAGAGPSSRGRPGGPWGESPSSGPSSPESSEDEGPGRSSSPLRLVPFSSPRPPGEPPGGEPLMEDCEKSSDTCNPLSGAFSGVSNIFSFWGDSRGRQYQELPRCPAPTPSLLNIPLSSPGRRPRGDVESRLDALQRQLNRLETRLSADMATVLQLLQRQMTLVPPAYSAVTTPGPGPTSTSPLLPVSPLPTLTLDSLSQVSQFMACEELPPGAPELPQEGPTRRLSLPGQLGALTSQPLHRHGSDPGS
Put plainly: hERG tail current electrophysiology, HEK293 cells. The class given is cell-based. The note with it: room temperature; […] tested; corrected for vehicle rundown; point-to-point fit.

The next data set deals with T6, M4 (Homo sapiens, UniProt P08173).
T6 construct: gene CHRM4; human recombinant receptor
T6 sequence (P08173 1-479): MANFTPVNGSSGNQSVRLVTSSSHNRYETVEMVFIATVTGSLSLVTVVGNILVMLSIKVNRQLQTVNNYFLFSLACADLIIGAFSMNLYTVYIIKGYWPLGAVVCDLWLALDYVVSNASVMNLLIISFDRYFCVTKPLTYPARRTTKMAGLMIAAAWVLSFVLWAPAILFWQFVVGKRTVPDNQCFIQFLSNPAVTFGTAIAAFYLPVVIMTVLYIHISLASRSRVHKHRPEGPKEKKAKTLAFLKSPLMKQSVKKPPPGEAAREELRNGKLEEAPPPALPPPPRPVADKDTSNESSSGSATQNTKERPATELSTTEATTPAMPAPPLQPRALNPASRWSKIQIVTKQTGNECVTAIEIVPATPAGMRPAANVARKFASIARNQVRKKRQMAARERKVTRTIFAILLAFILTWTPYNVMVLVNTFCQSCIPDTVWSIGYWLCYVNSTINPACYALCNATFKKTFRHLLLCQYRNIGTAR
Put plainly: radioligand binding inhibition. The note with it: […] separate tests; read-out: EC50 or IC50. The text has this:
radioligand binding inhibition on M4

For data set [6], the target named is T1, M2 (muscarinic subtype 2 acetylcholine receptor). As to the kind of experiment: radioligand binding inhibition. Conditions: range of […] separate tests ([…] and […]).

Molecules are shown by their SMILES. Values after ≈ are worked out from the molar mass of the structure shown.

T2 sequence (P20309 whole entry): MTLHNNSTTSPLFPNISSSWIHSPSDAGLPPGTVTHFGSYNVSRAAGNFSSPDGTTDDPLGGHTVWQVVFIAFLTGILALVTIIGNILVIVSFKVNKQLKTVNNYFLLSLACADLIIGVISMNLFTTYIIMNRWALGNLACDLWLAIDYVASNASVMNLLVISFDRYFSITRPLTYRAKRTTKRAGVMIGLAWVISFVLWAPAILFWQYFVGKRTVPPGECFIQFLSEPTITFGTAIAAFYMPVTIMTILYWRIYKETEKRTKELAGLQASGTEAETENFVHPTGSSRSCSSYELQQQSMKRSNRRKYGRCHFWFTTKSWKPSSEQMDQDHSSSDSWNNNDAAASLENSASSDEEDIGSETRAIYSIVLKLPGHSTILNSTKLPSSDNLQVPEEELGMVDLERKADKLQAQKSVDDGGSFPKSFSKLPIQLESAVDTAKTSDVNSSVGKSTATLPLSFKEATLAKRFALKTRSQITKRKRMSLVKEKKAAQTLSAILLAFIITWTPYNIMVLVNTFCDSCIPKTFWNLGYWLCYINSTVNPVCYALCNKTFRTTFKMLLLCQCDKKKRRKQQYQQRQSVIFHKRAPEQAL

The term inhibition denotes the drop in the measured response relative to a control, in per cent. The term IC50 denotes the concentration at which inhibition is half-maximal. For orientation: EC50 means the concentration at which the effect is half-maximal. A word on the IC25: it is the concentration needed for an effect of 25%. As to `CN(C)c1cc(CNCC(C)(C)C)c(O)c2c1C[C@H]1C[C@H]3[C@H](N(C)C)C(=O)C(C(N)=O)=C(O)[C@@]3(O)C(=O)C1=C2O` [omadacycline], the inhibition at 10 µM in data set [1] is 82%. Further, the IC50 is 21 to 28 µM in [2]; greater than 30 µM in data set [3]; 29 µM at M1; greater than 30 µM on M5; greater than 30 µM at M4; 4.2 to 4.3 µM in data set [6]. Moreover, in data set [4], the EC50 is greater than 30 µM. The compound also returned a 25% effect concentration (IC25) in [5] of 166 mg/L (≈ 298 µM).
